Reference: patent US20220387365A1, “TUCARESOL DERIVATIVES AND USES THEREOF” (BeyondSpring Pharmaceuticals, Inc., priority 2019, published 2022)

How the values were obtained:
[1] = Intravenous and oral dosing pharmacokinetic screen, plasma concentration by LC/MS/MS; design: species or system C57BL/6 mice; settings: in vivo; for concentration at 0.083 h / concentration at 0.25 h / concentration at 0.5 h / concentration at 2 h / concentration at 4 h / concentration at 1 h / concentration at 8 h / concentration at 24 h: B02 concentration
Description: (§1) Tucaresol, Compound B02, Compound C01, Compound C02-1, and Compound C02 were dosed once, by IV bolus (3 mg/kg in 20% hydroxyprophyl-13-cyclodextrin with 1 eq NaOH) or PO (10 mg/kg in 1% carboxymethylcellulose/0.1% tween-80 in water), to non-fasted male C57BL/6 mice. Animals were bled from the dorsal metatarsal vein (from the heart for 24 hour time point) for K2-EDTA plasma 0.083 (for IV only), 0.25, 0.5, 1, 2, 4, 8, and 24 hours after dosing. The plasma concentration of the dosed tucaresol or compound were measured by LC/MS/MS (I-CMS-8060 instrument for MS). PK parameters were then calculated with WinNonlin 6.1. For Compounds C01, CO2 and CO2-1, stability in C57BL/6 K2EDTA plasma was also evaluated at 22° C. over 1 hour by utilizing LC.

[2] = Stability in C57BL/6 K2EDTA plasma at 22° C. over 1 hour by LC; assay type: in vitro ADME, mouse; settings: for mouse plasma stability (in words): 22° C.; for Remaining %: mouse plasma, 2,000 ng/mL, 22°C
Description: as §1
Compounds C01 and C02-1 are unstable at 22° C.

[3] = male, C57BL/6, mouse, iv, 3 mg/kg, 0.083 h
[4] = male, C57BL/6, mouse, iv, 3 mg/kg, 0.25 h
[5] = male, C57BL/6, mouse, iv, 3 mg/kg, 2 h
[6] = male, C57BL/6, mouse, iv, 3 mg/kg, 4 h
[7] = male, C57BL/6, mouse, iv, 3 mg/kg, 8 h
[8] = male, C57BL/6, mouse, iv, 3 mg/kg
[9] = male, C57BL/6, mouse, iv, 3 mg/kg, Mean
[10] = male, C57BL/6, mouse, po, 10 mg/kg, 0.25 h
[11] = male, C57BL/6, mouse, po, 10 mg/kg, 0.5 h
[12] = male, C57BL/6, mouse, po, 10 mg/kg, 1 h
[13] = male, C57BL/6, mouse, po, 10 mg/kg, 2 h
[14] = male, C57BL/6, mouse, po, 10 mg/kg, 4 h
[15] = male, C57BL/6, mouse, po, 10 mg/kg, 8 h
[16] = male, C57BL/6, mouse, po, 10 mg/kg
[17] = male, C57BL/6, mouse, po, 10 mg/kg, Mean
[18] = male, C57BL/6, mouse, iv, 3 mg/kg, 0.5 h
[19] = male, C57BL/6, mouse, iv, 3 mg/kg, 1 h

## CO/N=C/c1c(O)cccc1OCc1ccc(C(=O)O)cc1 [Compound B02, (E)−4+((3-hydroxy-2-((methoxyimino)methyl)phenoxy)methyl)benzoic acid]
[1]; male, C57BL/6, mouse
  AUClast/D: 24.3 ng·h/mL per mg/kg
  T1/2: 5.49 h
  Tmax: 5.42 h
[1]; [3]
  Tucaresol plasma concentration, Mean: 12.5 ng/mL
[1]; [4]
  Tucaresol plasma concentration, Mean: 6.01 ng/mL
[1]; [5]
  Tucaresol plasma concentration, Mean: 4.30 ng/mL
[1]; [6]
  Tucaresol plasma concentration, Mean: 7.04 ng/mL
[1]; [7]
  Tucaresol plasma concentration, Mean: 8.52 ng/mL
[1]; [8]
  concentration at 0.083 h: 3220 ng/mL
  concentration at 0.25 h: 1740 ng/mL
  concentration at 0.5 h: 335 ng/mL
  concentration at 2 h: 179 ng/mL
  concentration at 4 h: 43.4 ng/mL
[1]; [9]
  concentration at 0.083 h: 3050 ng/mL
  concentration at 0.25 h: 1340 ng/mL
  concentration at 0.5 h: 283 ng/mL
  concentration at 1 h: 48.3 ng/mL
  concentration at 2 h: 187 ng/mL
  concentration at 4 h: 54 ng/mL
  concentration at 8 h: 18 ng/mL
[1]; [10]
  Tucaresol plasma concentration, Mean: 16.2 ng/mL
[1]; [11]
  Tucaresol plasma concentration, Mean: 9.3 ng/mL
[1]; [12]
  Tucaresol plasma concentration, Mean: 5.54 ng/mL
[1]; [13]
  Tucaresol plasma concentration, Mean: 11.0 ng/mL
[1]; [14]
  Tucaresol plasma concentration, Mean: 15.7 ng/mL
[1]; [15]
  Tucaresol plasma concentration, Mean: 28.4 ng/mL
[1]; [16]
  concentration at 0.25 h: 5780 ng/mL
  concentration at 0.5 h: 3370 ng/mL
  concentration at 4 h: 468 ng/mL
  concentration at 8 h: 114 ng/mL
  concentration at 24 h: 6.93 ng/mL
[1]; [17]
  concentration at 0.25 h: 4260 ng/mL
  concentration at 0.5 h: 2650 ng/mL
  concentration at 1 h: 674 ng/mL
  concentration at 2 h: 478 ng/mL
  concentration at 4 h: 412 ng/mL
  concentration at 8 h: 152 ng/mL
  concentration at 24 h: 10.5 ng/mL

## CC(=O)Oc1cccc(OCc2ccc(C(=O)O)cc2)c1C=O [Compound C01, 4-((3-acetoxy-2-formylphenoxy)methyl)benzoic acid]
[1]; male, C57BL/6, mouse
  AUClast/D: 4.24 ng·h/mL per mg/kg
  F: 0.333%
  T1/2: 4.24 h
  Tmax: 0.333 h
[1]; [3]
  Concentration, Compound B02 IV Plasma concentration-time data, Mean: 1021 ng/mL
[1]; [4]
  Concentration, Compound B02 IV Plasma concentration-time data, Mean: 691 ng/mL
[1]; [18]
  Concentration, Compound B02 IV Plasma concentration-time data, Mean: 465 ng/mL
[1]; [19]
  Concentration, Compound B02 IV Plasma concentration-time data, Mean: 316 ng/mL
[1]; [5]
  Concentration, Compound B02 IV Plasma concentration-time data, Mean: 201 ng/mL
[1]; [6]
  Concentration, Compound B02 IV Plasma concentration-time data, Mean: 116 ng/mL
[1]; [7]
  Concentration, Compound B02 IV Plasma concentration-time data, Mean: 60.9 ng/mL
[1]; male, C57BL/6, mouse, po
  tucaresol exposure in plasma (in words): significant but lower tucaresol exposure than Compound C02 dosing
[1]; [10]
  Concentration, Compound B02 PO Plasma concentration-time data, Mean: 643 ng/mL
[1]; [11]
  Concentration, Compound B02 PO Plasma concentration-time data, Mean: 512 ng/mL
[1]; [12]
  Concentration, Compound B02 PO Plasma concentration-time data, Mean: 386 ng/mL
[1]; [13]
  Concentration, Compound B02 PO Plasma concentration-time data, Mean: 302 ng/mL
[1]; [14]
  Concentration, Compound B02 PO Plasma concentration-time data, Mean: 191 ng/mL
[1]; [15]
  Concentration, Compound B02 PO Plasma concentration-time data, Mean: 107 ng/mL
[1]; male, C57BL/6, mouse, po, 10 mg/kg, 24 h
  Concentration, Compound B02 PO Plasma concentration-time data, Mean: 7.50 ng/mL
[1]; mouse, po
  tucaresol exposure in plasma (in words): significant exposure to tucaresol in plasma
[2]
  mouse plasma stability (in words): unstable
[2]; 0 min
  Remaining %: 100%
[2]; 5 min
  Remaining %: 15.0%
[2]; 15 min
  Remaining %: 1.07%

## COC(=O)c1ccc(COc2cccc(O)c2C=O)cc1 [Compound C02-1, methyl 4-((2-formyl-3-hydroxyphenoxy)methyl)benzoate]
[1]; male, C57BL/6, mouse
  AUClast/D: 161 ng·h/mL per mg/kg
  T1/2: 13.8 h
  Tmax: 3.33 h
[1]; [3]
  Tucaresol concentration, Mean: 17.3 ng/mL
[1]; [4]
  Tucaresol concentration, Mean: 52.9 ng/mL
[1]; [18]
  Tucaresol concentration, Mean: 79.9 ng/mL
[1]; [19]
  Tucaresol concentration, Mean: 60.5 ng/mL
[1]; [5]
  Tucaresol concentration, Mean: 49.3 ng/mL
[1]; [6]
  Tucaresol concentration, Mean: 36.0 ng/mL
[1]; [7]
  Tucaresol concentration, Mean: 18.2 ng/mL
[1]; [11]
  Tucaresol concentration, Mean: 15.9 ng/mL
[1]; [12]
  Tucaresol concentration, Mean: 49.9 ng/mL
[1]; [13]
  Tucaresol concentration, Mean: 103 ng/mL
[1]; [14]
  Tucaresol concentration, Mean: 114 ng/mL
[1]; [15]
  Tucaresol concentration, Mean: 83.0 ng/mL
[2]
  mouse plasma stability (in words): unstable
[2]; 0 min
  Remaining %: 100%
[2]; 5 min
  Remaining %: 18.9%
[2]; 15 min
  Remaining %: 16.7%
[2]; 30 min
  Remaining %: 6.56%
[2]; 60 min
  Remaining %: 2.37%
